Measured values reported in patent US20020137929A1, “1 - (3-heterocyclylphenyl) isothiourea, -isourea, -guanidine and -amidine herbicidal agents” (Intellectual Property Department, BASF Aktiengesellschaft, priority 1998, published 2002).

Legend:
GALAP (Galium) [1] = assay: Postemergence herbicidal evaluation; type: in vivo, Galium aparine; settings: postemergence
Summary of the method: (§1)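 Scores (0–9) reflect plant stand, vigor, malformation, size, chlorosis and general appearance relative to control, read 4 to 5 weeks after treatment and averaged where tests were repeated. Application: about 0.0156–0.500 kg/ha sprayed at 40 psi onto two-week seedlings.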

CYPIR (Rice Flatsedge) = assay: Preemergence weed control under flooded paddy conditions; type: in vivo, Cyperus iria; settings: rated 3-4 weeks after treatment
Summary of the method: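 First, seeds or propagules go into the top 0.5 cm of silt loam; next, water is held 1.5 to 3 cm over the soil; then compound (50/50 acetone/water) is pipetted into it at about 0.0313 to 0.500 kg/ha; finally plants are rated visually 0-9 after three to four weeks.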

AMBEL (Ragweed, Common) = assay: Postemergence herbicidal evaluation; type: in vivo, Ambrosia artemisifolia; settings: postemergence
Summary of the method: as §1

[2] = tested on: GLXMAW (Soybean, Williams); assay: Postemergence herbicidal evaluation; type: in vivo, Glycine max, (L.) Merr. cv Williams; settings: postemergence
Summary of the method: as §1

ZEAMX (Corn, Field) = assay: Preemergence herbicidal evaluation; type: in vivo, Zea mays; settings: rated 4-5 weeks after treatment, rating scale 0-9
Summary of the method: (§2)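 Each species is sown separately in potting soil over roughly an inch of soil before any emergence. The soil surface then receives an aqueous acetone spray delivering about 0.0156 to 0.500 kg/ha of compound. After four to five weeks, injury is scored from 0 to 9 relative to a control.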

[3] = tested on: CHEAL (Lambsquarters, Common); assay: Postemergence herbicidal evaluation; type: in vivo, Chenopodium album; settings: postemergence
Summary of the method: as §1

ECHCG (Barnyardgrass) = assay: Postemergence herbicidal evaluation; type: in vivo, Echinochloa crus-galli; settings: postemergence
Summary of the method: as §1

CASOB (Sicklepod) [4] = assay: Postemergence herbicidal evaluation; type: in vivo, Cassia obtusifolia; settings: postemergence
Summary of the method: as §1

ORYSAT (Rice, Tebonnet) = assay: Postemergence herbicidal evaluation; type: in vivo, Oryza sativa, (L.) Tebonnet; settings: postemergence
Summary of the method: as §1

GALAP (Galium) [5] = assay: Preemergence herbicidal evaluation; type: in vivo, Galium aparine; settings: rated 4-5 weeks after treatment, rating scale 0-9
Summary of the method: as §2

CASOB (Sicklepod) [6] = assay: Preemergence herbicidal evaluation; type: in vivo, Cassia obtusifolia; settings: rated 4-5 weeks after treatment, rating scale 0-9
Summary of the method: as §2

CYPSE (Flatsedge) = assay: Preemergence weed control under flooded paddy conditions; type: in vivo, Cyperus serotinus; settings: rated 3-4 weeks after treatment
Summary of the method: (§3)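 Seeds or propagules sown in silt loam kept flooded 1.5-3 cm; compounds in 50/50 acetone/water pipetted into flood water at about 0.0313 to 0.500 kg/ha. Greenhouse; visual 0-9 rating versus untreated control 3-4 weeks after treatment.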

SETVI (Foxtail, Green) = assay: Postemergence herbicidal evaluation; type: in vivo, Setaria viridis; settings: postemergence
Summary of the method: as §1

[7] = tested on: SAGPY (Arrowhead (Pygmaea)); assay: Preemergence weed control under flooded paddy conditions; type: in vivo, Sagittaria pygmaea; settings: rated 3-4 weeks after treatment
Summary of the method: as §3

Question: For `CN(C)c1ccc(CN2C(=O)CSC2=Nc2cc(-n3c(=O)cc(C(F)(F)F)n(C)c3=O)c(F)cc2Cl)cc1` [Compound 138, 3-{4-Chloro-5-{{3-[p-(dimethylamino)benzyl]-4-oxo-2-thiazolidinylidene}amino}-2-fluorophenyl}-1-methyl-6-(trifluoromethyl)-2,4(1H,3H)-pyrimidinedione], which “Herbicidal rating GALAP” value (GALAP (Galium) [1]; rate 0.0156 kg/ha) is on record?
Answer: The value was 0.0.

Question: And the “Herbicidal rating GALAP” value (GALAP (Galium) [1]; rate 0.0313 kg/ha)?
Answer: Its value is 2.0.

Question: And the “Herbicidal rating GALAP” value (GALAP (Galium) [1]; rate 0.0625 kg/ha)?
Answer: The value was 2.0.

Question: What about the “herbicidal effect rating, CYPIR” value (CYPIR (Rice Flatsedge); 0.0313 kg/ha) of the same compound?
Answer: The value was 2.0.

Question: And the “herbicidal effect rating, CYPIR” value (CYPIR (Rice Flatsedge); 0.0625 kg/ha)?
Answer: The value was 2.0.

Question: What about the “herbicidal effect rating, CYPIR” value (CYPIR (Rice Flatsedge); 0.1250 kg/ha) of the same compound?
Answer: The value was 3.0.

Question: And the “herbicidal effect rating, CYPIR” value (CYPIR (Rice Flatsedge); 0.2500 kg/ha)?
Answer: Its value is 5.0.

Question: What about the “Herbicidal rating AMBEL” value (AMBEL (Ragweed, Common); rate 0.0156 kg/ha) of the same compound?
Answer: Its value is 9.0.

Question: What about the “Herbicidal rating AMBEL” value (AMBEL (Ragweed, Common); rate 0.0313 kg/ha) of the same compound?
Answer: The value was 9.0.

Question: What about the “Herbicidal rating AMBEL” value (AMBEL (Ragweed, Common); rate 0.0625 kg/ha) of the same compound?
Answer: Its value is 9.0.

Question: And the “Herbicidal rating GLXMAW” value ([2]; rate 0.0156 kg/ha)?
Answer: Its value is 5.0.

Question: What about the “Herbicidal rating GLXMAW” value ([2]; rate 0.0313 kg/ha) of the same compound?
Answer: The value was 6.0.

Question: And the “Herbicidal rating GLXMAW” value ([2]; rate 0.0625 kg/ha)?
Answer: Its value is 6.5.

Question: And the “Preemergence herbicidal rating ZEAMX” value (ZEAMX (Corn, Field); rate 0.0156 kg/ha)?
Answer: Its value is 0.0.

Question: And the “Preemergence herbicidal rating ZEAMX” value (ZEAMX (Corn, Field); rate 0.0313 kg/ha)?
Answer: Its value is 0.0.

Question: And the “Preemergence herbicidal rating ZEAMX” value (ZEAMX (Corn, Field); rate 0.0625 kg/ha)?
Answer: The value was 0.0.

Question: And the “Preemergence herbicidal rating ZEAMX” value (ZEAMX (Corn, Field); rate 0.1250 kg/ha)?
Answer: The value was 0.0.

Question: What about the “Preemergence herbicidal rating ZEAMX” value (ZEAMX (Corn, Field); rate 0.2500 kg/ha) of the same compound?
Answer: Its value is 0.0.

Question: What about the “Herbicidal rating CHEAL” value ([3]; rate 0.0156 kg/ha) of the same compound?
Answer: The value was 9.0.

Question: What about the “Herbicidal rating CHEAL” value ([3]; rate 0.0313 kg/ha) of the same compound?
Answer: Its value is 9.0.

Question: And the “Herbicidal rating CHEAL” value ([3]; rate 0.0625 kg/ha)?
Answer: Its value is 9.0.

Question: And the “Herbicidal rating ECHCG” value (ECHCG (Barnyardgrass); rate 0.0156 kg/ha)?
Answer: Its value is 1.0.

Question: What about the “Herbicidal rating ECHCG” value (ECHCG (Barnyardgrass); rate 0.0313 kg/ha) of the same compound?
Answer: The value was 1.0.

Question: What about the “Herbicidal rating ECHCG” value (ECHCG (Barnyardgrass); rate 0.0625 kg/ha) of the same compound?
Answer: Its value is 2.0.

Question: And the “Herbicidal rating CASOB” value (CASOB (Sicklepod) [4]; rate 0.0156 kg/ha)?
Answer: The value was 0.0.

Question: What about the “Herbicidal rating CASOB” value (CASOB (Sicklepod) [4]; rate 0.0313 kg/ha) of the same compound?
Answer: The value was 1.0.

Question: And the “Herbicidal rating CASOB” value (CASOB (Sicklepod) [4]; rate 0.0625 kg/ha)?
Answer: The value was 6.0.

Question: What about the “Herbicidal rating ORYSAT” value (ORYSAT (Rice, Tebonnet); rate 0.0156 kg/ha) of the same compound?
Answer: The value was 1.5.

Question: And the “Herbicidal rating ORYSAT” value (ORYSAT (Rice, Tebonnet); rate 0.0313 kg/ha)?
Answer: The value was 2.5.

Question: What about the “Herbicidal rating ORYSAT” value (ORYSAT (Rice, Tebonnet); rate 0.0625 kg/ha) of the same compound?
Answer: The value was 3.0.

Question: What about the “Preemergence herbicidal rating GALAP” value (GALAP (Galium) [5]; rate 0.0156 kg/ha) of the same compound?
Answer: The value was 0.0.

Question: And the “Preemergence herbicidal rating GALAP” value (GALAP (Galium) [5]; rate 0.0313 kg/ha)?
Answer: The value was 0.0.

Question: And the “Preemergence herbicidal rating GALAP” value (GALAP (Galium) [5]; rate 0.0625 kg/ha)?
Answer: The value was 0.0.

Question: And the “Preemergence herbicidal rating GALAP” value (GALAP (Galium) [5]; rate 0.1250 kg/ha)?
Answer: The value was 0.0.

Question: What about the “Preemergence herbicidal rating GALAP” value (GALAP (Galium) [5]; rate 0.2500 kg/ha) of the same compound?
Answer: Its value is 4.0.

Question: What about the “Preemergence herbicidal rating CASOB” value (CASOB (Sicklepod) [6]; rate 0.0156 kg/ha) of the same compound?
Answer: The value was 0.0.

Question: And the “Preemergence herbicidal rating CASOB” value (CASOB (Sicklepod) [6]; rate 0.0313 kg/ha)?
Answer: Its value is 0.0.

Question: What about the “Preemergence herbicidal rating CASOB” value (CASOB (Sicklepod) [6]; rate 0.0625 kg/ha) of the same compound?
Answer: The value was 0.0.

Question: What about the “Preemergence herbicidal rating CASOB” value (CASOB (Sicklepod) [6]; rate 0.1250 kg/ha) of the same compound?
Answer: The value was 0.0.

Question: What about the “Preemergence herbicidal rating CASOB” value (CASOB (Sicklepod) [6]; rate 0.2500 kg/ha) of the same compound?
Answer: Its value is 0.0.

Question: What about the “herbicidal effect rating, CYPSE” value (CYPSE (Flatsedge); 0.0313 kg/ha) of the same compound?
Answer: Its value is 0.0.

Question: What about the “herbicidal effect rating, CYPSE” value (CYPSE (Flatsedge); 0.0625 kg/ha) of the same compound?
Answer: The value was 0.0.

Question: What about the “herbicidal effect rating, CYPSE” value (CYPSE (Flatsedge); 0.1250 kg/ha) of the same compound?
Answer: The value was 0.0.

Question: What about the “herbicidal effect rating, CYPSE” value (CYPSE (Flatsedge); 0.2500 kg/ha) of the same compound?
Answer: The value was 0.0.

Question: And the “Herbicidal rating SETVI” value (SETVI (Foxtail, Green); rate 0.0156 kg/ha)?
Answer: Its value is 3.0.

Question: What about the “Herbicidal rating SETVI” value (SETVI (Foxtail, Green); rate 0.0313 kg/ha) of the same compound?
Answer: The value was 4.0.

Question: And the “Herbicidal rating SETVI” value (SETVI (Foxtail, Green); rate 0.0625 kg/ha)?
Answer: Its value is 9.0.

Question: What about the “herbicidal effect rating, SAGPY” value ([7]; 0.0313 kg/ha) of the same compound?
Answer: Its value is 0.0.

Question: And the “herbicidal effect rating, SAGPY” value ([7]; 0.0625 kg/ha)?
Answer: The value was 0.0.

Question: What about the “herbicidal effect rating, SAGPY” value ([7]; 0.1250 kg/ha) of the same compound?
Answer: The value was 0.0.

Question: What about the “herbicidal effect rating, SAGPY” value ([7]; 0.2500 kg/ha) of the same compound?
Answer: The value was 3.0.
